Drawing on patent publication US12275731B2, “Azaindole inhibitors of wild-type and mutant forms of LRRK2” (DANA-FARBER CANCER INSTITUTE, INC., priority 2018, dated 2025), this text covers remaining binding for 3 molecules.

Each structure is given as a SMILES string.

Experiment in all cases: KinomeScan profiling
Type in all cases: binding

One experiment addresses T1, PIK3CA(C420R) (Homo sapiens, UniProt P42336, C420R).
T1 construct: purchased KinomeScan® (panel service)
Particulars: read-out: % control. In outline: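 Percent-of-control values derive from RLU, calculated as (test − positive)/(negative − positive) × 100, where DMSO defines 100% and a positive control compound defines 0%. Each compound was tested at 1 μM in the 468-kinase panel; sub-35% readings indicate activity.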

The target in the next experiment is GRK4 (Homo sapiens, UniProt P32298). Particulars: GRK4, 1 μM; read-out: % control. A digest of the protocol:
(§1)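 At 1 μM in DMSO, compounds are run through a broad 468-member kinase panel. The luminescent read-out is normalised so that vehicle gives 100% and a positive control gives 0%; any kinase falling below 35% is treated as a target.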

For another experiment, the target named is T2, S6K1 (Homo sapiens, UniProt P23443).
T2 construct: purchased KinomeScan® (panel service)
T2 sequence (P23443 whole entry): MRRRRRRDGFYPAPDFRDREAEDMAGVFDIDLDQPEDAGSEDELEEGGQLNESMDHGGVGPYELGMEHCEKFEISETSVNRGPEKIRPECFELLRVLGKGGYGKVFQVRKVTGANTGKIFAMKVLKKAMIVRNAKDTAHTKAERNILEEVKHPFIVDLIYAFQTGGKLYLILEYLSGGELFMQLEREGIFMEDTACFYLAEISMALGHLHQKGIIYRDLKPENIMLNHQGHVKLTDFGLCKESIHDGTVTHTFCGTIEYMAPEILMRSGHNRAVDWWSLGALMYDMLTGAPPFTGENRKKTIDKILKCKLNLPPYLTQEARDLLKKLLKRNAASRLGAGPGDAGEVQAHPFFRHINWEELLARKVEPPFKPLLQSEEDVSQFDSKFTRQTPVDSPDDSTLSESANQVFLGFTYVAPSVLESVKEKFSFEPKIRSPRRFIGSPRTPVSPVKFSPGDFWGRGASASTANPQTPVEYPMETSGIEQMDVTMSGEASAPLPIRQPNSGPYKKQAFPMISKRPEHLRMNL
Particulars: S6K1, 1 μM; read-out: % control. A digest of the protocol:
as §1

For the next experiment, the target named is PFCDPK1(P. falciparum) (Plasmodium falciparum, UniProt P62344). Particulars: read-out: % control. A digest of the protocol:
as §1

The target in the next experiment is T3, NEK9 (Homo sapiens, UniProt Q8TD19).
T3 sequence (Q8TD19 1-979): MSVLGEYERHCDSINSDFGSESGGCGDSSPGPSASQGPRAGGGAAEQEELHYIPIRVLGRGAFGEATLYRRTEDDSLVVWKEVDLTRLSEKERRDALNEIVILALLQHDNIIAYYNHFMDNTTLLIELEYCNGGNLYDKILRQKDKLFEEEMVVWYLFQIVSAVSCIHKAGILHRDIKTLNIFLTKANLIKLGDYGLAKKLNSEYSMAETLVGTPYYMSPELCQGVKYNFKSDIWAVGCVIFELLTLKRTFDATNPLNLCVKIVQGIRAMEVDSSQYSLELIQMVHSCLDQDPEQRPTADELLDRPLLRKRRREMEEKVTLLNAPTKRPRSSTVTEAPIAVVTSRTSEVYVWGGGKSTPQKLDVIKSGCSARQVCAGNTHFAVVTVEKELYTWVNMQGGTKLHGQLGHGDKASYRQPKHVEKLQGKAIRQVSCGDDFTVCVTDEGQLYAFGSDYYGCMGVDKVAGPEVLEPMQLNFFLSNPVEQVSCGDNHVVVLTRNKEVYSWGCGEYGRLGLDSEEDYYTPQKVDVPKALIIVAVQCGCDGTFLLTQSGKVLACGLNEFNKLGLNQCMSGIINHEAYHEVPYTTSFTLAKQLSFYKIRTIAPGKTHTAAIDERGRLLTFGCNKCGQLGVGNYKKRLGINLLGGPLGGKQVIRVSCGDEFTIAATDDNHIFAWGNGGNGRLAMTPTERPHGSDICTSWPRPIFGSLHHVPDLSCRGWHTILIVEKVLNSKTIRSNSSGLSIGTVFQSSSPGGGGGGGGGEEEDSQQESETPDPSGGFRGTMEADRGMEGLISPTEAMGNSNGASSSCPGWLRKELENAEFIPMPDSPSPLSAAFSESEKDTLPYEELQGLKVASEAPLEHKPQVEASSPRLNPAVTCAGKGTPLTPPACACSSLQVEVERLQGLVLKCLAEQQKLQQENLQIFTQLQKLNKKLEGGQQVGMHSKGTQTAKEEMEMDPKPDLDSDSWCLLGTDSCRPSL
Particulars: NEK9, 1 μM; read-out: % control. A digest of the protocol: as §1

Experiment [1] addresses T4, RSK1(Kin.Dom.1-N-terminal) (Homo sapiens, UniProt Q15418).
T4 construct: RSK1(Kin.Dom.1-N-terminal)
Particulars: read-out: % control. A digest of the protocol:
as §1

For experiment [2], the target named is T5, RSK1(Kin.Dom.2-C-terminal) (Homo sapiens, UniProt Q15418).
T5 construct: RSK1(Kin.Dom.2-C-terminal)
T5 sequence (Q15418 418-675 limits assumed): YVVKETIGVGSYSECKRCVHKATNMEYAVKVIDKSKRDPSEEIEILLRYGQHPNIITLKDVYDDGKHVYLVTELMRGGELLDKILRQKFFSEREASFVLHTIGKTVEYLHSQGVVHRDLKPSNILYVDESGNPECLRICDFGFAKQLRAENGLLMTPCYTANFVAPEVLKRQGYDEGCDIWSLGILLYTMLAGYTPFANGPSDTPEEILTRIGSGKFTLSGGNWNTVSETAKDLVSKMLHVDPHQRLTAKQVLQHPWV
Particulars: read-out: % control. In outline:
as §1

Another experiment concerns the target T6, SYK (Homo sapiens, UniProt P43405).
T6 construct: purchased KinomeScan® (panel service)
Particulars: read-out: % control. A digest of the protocol: as §1

In a further experiment the target is PLK3 (Homo sapiens, UniProt Q9H4B4). Particulars: PLK3, 1 μM; read-out: % control. In outline: as §1
Sequence of PLK3 (Q9H4B4 whole entry): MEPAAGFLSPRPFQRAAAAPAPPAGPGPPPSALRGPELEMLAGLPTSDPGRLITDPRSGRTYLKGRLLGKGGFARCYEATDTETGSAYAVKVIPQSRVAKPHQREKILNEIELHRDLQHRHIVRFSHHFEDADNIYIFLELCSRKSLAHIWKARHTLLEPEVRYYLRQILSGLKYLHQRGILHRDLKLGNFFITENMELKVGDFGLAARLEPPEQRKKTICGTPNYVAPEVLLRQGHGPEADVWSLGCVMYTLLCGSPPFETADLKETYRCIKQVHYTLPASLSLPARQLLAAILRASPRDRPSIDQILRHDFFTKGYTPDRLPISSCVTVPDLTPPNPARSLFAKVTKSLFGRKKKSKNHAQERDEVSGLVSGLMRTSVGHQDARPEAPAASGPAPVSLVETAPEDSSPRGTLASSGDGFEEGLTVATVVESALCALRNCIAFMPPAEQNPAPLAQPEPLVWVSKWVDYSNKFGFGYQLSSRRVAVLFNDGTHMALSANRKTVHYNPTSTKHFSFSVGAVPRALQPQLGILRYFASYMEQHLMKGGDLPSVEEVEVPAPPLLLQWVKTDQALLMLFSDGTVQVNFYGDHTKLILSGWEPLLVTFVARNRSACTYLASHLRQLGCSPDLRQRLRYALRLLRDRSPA
Another experiment deals with MARK2 (Homo sapiens, UniProt Q7KZI7). Particulars: MARK2, 1 μM; read-out: % control. A digest of the protocol: as §1
Sequence of MARK2 (Q7KZI7 whole entry): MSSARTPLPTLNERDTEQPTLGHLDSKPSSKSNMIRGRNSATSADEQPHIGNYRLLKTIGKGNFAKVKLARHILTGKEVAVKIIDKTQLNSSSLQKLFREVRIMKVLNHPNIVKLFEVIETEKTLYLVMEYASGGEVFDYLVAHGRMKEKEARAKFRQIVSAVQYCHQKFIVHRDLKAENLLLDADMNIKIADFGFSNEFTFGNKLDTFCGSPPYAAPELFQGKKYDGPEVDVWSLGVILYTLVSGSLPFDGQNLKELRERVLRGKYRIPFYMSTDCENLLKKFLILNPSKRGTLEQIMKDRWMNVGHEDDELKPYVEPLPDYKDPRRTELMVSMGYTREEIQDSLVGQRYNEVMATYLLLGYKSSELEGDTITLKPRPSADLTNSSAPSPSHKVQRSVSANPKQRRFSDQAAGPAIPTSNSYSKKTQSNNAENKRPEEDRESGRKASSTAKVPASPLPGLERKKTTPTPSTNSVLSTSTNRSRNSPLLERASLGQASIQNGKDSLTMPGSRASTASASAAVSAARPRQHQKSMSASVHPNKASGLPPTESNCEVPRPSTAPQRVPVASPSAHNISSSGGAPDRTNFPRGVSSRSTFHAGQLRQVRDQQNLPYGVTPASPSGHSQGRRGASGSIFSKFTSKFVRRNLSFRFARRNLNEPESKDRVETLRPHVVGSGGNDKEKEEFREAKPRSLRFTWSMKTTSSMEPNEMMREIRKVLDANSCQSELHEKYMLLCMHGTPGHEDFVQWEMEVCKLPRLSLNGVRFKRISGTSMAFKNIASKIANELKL
The target of the next experiment is T7, PIK3CD (Homo sapiens, UniProt O00329).
T7 construct: purchased KinomeScan® (panel service)
T7 sequence (O00329 1-1044): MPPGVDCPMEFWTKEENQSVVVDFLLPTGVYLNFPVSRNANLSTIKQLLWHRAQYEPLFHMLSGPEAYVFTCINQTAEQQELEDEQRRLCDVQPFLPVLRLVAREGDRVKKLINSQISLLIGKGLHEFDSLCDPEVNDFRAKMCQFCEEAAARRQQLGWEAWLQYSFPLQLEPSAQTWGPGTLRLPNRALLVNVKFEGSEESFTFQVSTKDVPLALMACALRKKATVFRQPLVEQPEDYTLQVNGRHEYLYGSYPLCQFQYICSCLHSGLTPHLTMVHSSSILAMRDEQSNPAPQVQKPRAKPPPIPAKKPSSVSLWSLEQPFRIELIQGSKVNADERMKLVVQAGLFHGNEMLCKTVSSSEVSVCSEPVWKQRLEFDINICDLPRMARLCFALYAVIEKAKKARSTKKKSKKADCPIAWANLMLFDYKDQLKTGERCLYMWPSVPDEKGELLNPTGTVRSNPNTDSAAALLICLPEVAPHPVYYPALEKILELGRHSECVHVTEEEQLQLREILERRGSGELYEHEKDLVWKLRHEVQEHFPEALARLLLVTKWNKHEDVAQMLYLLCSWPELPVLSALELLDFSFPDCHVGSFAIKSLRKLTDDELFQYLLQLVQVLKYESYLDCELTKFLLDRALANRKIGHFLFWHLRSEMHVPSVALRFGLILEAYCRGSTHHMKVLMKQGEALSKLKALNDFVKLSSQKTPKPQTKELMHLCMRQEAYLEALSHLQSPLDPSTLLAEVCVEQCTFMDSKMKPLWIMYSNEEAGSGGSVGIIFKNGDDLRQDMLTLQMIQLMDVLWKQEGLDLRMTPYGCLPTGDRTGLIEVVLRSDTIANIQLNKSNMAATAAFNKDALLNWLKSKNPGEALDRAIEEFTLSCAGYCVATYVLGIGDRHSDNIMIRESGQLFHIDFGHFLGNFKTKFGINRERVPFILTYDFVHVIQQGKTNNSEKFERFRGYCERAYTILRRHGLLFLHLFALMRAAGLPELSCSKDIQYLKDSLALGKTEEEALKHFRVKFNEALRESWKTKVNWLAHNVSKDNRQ
Particulars: read-out: % control. In outline: as §1

Sequence of GRK4 (P32298 whole entry): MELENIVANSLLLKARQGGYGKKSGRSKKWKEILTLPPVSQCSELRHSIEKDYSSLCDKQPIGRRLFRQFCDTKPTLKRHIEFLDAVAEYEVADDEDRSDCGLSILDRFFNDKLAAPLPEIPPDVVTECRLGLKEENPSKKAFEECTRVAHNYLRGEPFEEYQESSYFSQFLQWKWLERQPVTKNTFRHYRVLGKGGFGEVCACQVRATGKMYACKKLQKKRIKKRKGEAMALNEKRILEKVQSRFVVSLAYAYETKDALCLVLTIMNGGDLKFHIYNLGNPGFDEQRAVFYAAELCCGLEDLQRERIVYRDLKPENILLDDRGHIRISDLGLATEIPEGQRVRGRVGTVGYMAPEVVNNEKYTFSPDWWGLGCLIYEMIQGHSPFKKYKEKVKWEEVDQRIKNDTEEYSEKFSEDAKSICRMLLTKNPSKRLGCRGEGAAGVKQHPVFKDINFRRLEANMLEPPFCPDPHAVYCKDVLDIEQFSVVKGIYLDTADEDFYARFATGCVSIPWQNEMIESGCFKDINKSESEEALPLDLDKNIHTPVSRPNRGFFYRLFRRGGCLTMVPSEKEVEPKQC
T1 sequence (P42336 whole entry C420R): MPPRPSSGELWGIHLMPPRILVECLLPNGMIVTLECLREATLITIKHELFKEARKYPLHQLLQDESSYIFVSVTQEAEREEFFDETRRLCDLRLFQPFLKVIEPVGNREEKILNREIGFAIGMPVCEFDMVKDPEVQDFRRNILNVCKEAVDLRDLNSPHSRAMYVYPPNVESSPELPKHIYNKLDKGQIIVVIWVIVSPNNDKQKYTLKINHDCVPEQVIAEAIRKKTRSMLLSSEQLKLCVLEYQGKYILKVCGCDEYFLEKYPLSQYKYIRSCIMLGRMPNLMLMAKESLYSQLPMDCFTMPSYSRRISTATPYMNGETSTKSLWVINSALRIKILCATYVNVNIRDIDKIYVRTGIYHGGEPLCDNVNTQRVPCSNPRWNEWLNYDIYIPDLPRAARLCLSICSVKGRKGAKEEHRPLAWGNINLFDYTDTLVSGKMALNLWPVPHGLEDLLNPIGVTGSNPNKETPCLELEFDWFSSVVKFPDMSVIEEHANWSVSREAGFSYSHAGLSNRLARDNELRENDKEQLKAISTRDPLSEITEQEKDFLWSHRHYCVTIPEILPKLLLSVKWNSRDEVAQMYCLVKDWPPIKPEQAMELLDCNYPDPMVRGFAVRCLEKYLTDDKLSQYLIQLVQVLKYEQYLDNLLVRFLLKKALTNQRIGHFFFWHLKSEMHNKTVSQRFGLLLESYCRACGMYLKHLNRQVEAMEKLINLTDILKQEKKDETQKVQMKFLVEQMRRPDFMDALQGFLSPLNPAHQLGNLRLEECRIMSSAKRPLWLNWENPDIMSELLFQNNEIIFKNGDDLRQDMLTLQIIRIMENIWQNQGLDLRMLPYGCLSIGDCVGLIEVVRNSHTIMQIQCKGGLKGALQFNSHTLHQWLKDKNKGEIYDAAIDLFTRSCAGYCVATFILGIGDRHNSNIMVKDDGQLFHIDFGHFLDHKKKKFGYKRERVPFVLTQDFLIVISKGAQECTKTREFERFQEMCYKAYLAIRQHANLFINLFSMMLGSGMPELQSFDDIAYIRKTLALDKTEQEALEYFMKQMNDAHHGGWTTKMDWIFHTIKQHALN
T4 sequence (Q15418 62-321 limits assumed): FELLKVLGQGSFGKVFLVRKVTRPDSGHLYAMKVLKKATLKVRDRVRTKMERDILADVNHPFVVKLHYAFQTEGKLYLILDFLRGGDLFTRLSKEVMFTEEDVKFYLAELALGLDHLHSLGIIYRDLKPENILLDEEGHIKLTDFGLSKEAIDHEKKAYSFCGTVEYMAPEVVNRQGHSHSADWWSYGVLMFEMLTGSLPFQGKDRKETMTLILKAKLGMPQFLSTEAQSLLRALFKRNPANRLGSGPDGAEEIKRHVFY
Sequence of PFCDPK1(P. falciparum) (P62344 whole entry): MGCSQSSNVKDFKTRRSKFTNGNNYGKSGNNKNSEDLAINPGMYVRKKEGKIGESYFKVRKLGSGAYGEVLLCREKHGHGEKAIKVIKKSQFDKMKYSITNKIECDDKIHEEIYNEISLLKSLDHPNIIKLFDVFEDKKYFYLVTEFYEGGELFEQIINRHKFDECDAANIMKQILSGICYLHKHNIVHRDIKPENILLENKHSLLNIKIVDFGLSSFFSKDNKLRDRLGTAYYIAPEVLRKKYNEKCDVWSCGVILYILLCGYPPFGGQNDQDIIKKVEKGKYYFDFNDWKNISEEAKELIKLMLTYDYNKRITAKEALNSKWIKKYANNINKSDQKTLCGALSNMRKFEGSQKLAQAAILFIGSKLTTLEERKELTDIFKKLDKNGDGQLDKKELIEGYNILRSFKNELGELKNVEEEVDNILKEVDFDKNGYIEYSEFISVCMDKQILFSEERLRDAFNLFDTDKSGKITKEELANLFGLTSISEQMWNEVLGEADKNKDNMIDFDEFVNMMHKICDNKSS

Regarding `CNc1c(-c2ccc(C(=O)N3CCC(N4CCOCC4)CC3)cc2)cnc2[nH]cc(Cl)c12` [Compound 96, (4-(3-chloro-4-(methylamino)-1H-pyrrolo[2,3-b]pyridin-5-yl)phenyl)(4-morpholinopiperidin-1-yl)methanone], the remaining binding at 1 µM at PIK3CA(C420R) was determined as 75%; at GRK4 it was 28%; at S6K1, 87%; on PFCDPK1(P. falciparum) it was 94%; at NEK9, 100%; in experiment [1], 100%. In addition, the remaining binding at 1 µM in experiment [2] amounted to 100%; on SYK it was 100%; on PLK3 it was 99%; on MARK2, 60%; at PIK3CD, 84%.

Regarding `O=C(c1ccc(-c2cnc3[nH]cc(Cl)c3c2NC2CCCC2)cc1)N1CCC(N2CCOCC2)CC1` [Compound 101, (4-(3-chloro-4-(cyclopentylamino)-1H-pyrrolo[2,3-b]pyridin-5-yl)phenyl)(4-morpholinopiperidin-1-yl)methanone], the remaining binding at 1 µM on PIK3CA(C420R) worked out at 100%; on GRK4 it was 14%; on S6K1 it was 100%; on PFCDPK1(P. falciparum) it was 95%; at NEK9, 98%; in experiment [1] it was 80%. Moreover, the remaining binding at 1 µM in [2] is 88%; at SYK it was 100%; at PLK3, 84%; on MARK2 it was 68%; at PIK3CD it was 100%.

As to `CNc1c(-c2cnn([C@H]3CCN(C(C)=O)C[C@@H]3F)c2)cnc2[nH]cc(Cl)c12` [Compound 77, 1-((3S,4S)-4-(4-(3-chloro-4-(methylamino)-1H-pyrrolo[2,3-b]pyridin-5-yl)-1H-pyrazol-1-yl)-3-fluoropiperidin-1-yl)ethan-1-one], the remaining binding at 1 µM on PIK3CA(C420R) worked out at 75%; at GRK4 it was 21%; at S6K1, 50%; on PFCDPK1(P. falciparum), 86%; on NEK9, 100%; in [1] it was 93%. The remaining binding at 1 µM in experiment [2] was found to be 99%; on SYK, 100%; on PLK3, 78%; on MARK2, 86%; on PIK3CD, 85%.
